According to patent US8492589B2, “Alkynyl phenyl derivative compounds for treating ophthalmic diseases and disorders” (Acucela Inc., priority 2007, dated 2013):

biological target: T1, visual cycle isomerase (Bovine RPE microsome membranes) (Bos taurus, UniProt Q28175); assay: In vitro isomerase inhibition assay, bovine RPE microsome membranes; assay type: biochemical; conditions: bovine RPE microsomes; 11-cis retinol formation
T1 construct: Bovine Retinal Pigment Epithelium (RPE) microsome membranes were the source of a visual cycle isomerase; from tissue; host or cells: bovine retinal pigment epithelium microsome membranes
T1 sequence (Q28175 2-533 limits assumed): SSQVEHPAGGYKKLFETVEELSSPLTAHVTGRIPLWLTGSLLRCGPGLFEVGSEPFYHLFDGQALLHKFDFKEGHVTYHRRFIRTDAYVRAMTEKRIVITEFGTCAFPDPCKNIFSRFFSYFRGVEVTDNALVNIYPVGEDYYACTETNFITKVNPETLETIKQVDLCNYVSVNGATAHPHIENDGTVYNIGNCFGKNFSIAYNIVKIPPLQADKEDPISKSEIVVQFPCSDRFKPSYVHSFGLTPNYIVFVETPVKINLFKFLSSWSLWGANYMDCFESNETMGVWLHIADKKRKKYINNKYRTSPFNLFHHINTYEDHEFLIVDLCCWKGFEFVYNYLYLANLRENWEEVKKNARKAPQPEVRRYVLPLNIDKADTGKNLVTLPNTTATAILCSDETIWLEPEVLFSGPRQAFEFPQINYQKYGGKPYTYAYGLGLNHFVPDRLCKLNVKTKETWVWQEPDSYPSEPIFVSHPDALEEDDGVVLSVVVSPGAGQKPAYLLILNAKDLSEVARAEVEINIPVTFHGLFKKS
Description: The capability of alkynyl phenyl-linked amine derivative compounds to inhibit the activity of a visual cycle isomerase was determined.
Bovine Retinal Pigment Epithelium (RPE) microsome membranes were the source of a visual cycle isomerase.
Crude RPE microsome extracts were thawed in a 37° C. water bath, and then immediately placed on ice. 50 ml crude RPE microsomes were placed into a 50 ml Teflon-glass homogenizer (Fisher Scientific, catalog no. 0841416M) on ice, powered by a hand-held DeWalt drill, and homogenized ten times up and down on ice under maximum speed. This process was repeated until the crude RPE microsome solution was homogenized. The homogenate was then subjected to centrifugation (50.2 Ti rotor (Beckman, Fullerton, Calif.), 13,000 RPM; 15360 Rcf) for 15 minutes at 4° C. The supernatant was collected and subjected to centrifugation at 42,000 RPM (160,000 Rcf; 50.2 Ti rotor) for 1 hour at 4° C. The supernatant was removed, and the pellets were suspended in 12 ml (final volume) cold 10 mM MOPS buffer, pH 7.0. The resuspended RPE membranes in 5 ml aliquots were homogenized in a glass-to-glass homogenizer (Fisher Scientific, catalog no. K885500-0021) to high homogeneity. Protein concentration was quantified using the BCA protein assay according to the manufacturer's protocol (Pierce, Rockford, Ill.). The homogenized RPE preparations were stored at −80° C.
Recombinant human apo cellular retinaldehyde-binding protein (CRALBP) was cloned and expressed according to standard methods in the molecular biology art (see Crabb et al., Protein Science 7:746-57 (1998); Crabb et al., J. Biol. Chem. 263:18688-92 (1988)). Briefly, total RNA was prepared from confluent ARPE19 cells (American Type Culture Collection, Manassas, Va.), cDNA was synthesized using an oligo(dT)12-18 primer, and then DNA encoding CRALBP was amplified by two sequential polymerase chain reactions (see Crabb et al., J. Biol. Chem. 263:18688-92 (1988); Intres, et al., J. Biol. Chem. 269:25411-18 (1994); GenBank Accession No. L34219.1). The PCR product was sub-cloned into pTrcHis2-TOPO TA vector according to the manufacturer's protocol (Invitrogen Inc., Carlsbad, Calif.; catalog no. K4400-01), and then the sequence was confirmed according to standard nucleotide sequencing techniques. Recombinant 6×His-tagged human CRALBP was expressed in One Shot TOP 10 chemically competent E. coli cells (Invitrogen), and the recombinant polypeptide was isolated from E. coli cell lysates by nickel affinity chromatography using nickel (Ni) Sepharose XK16-20 columns for HPLC (Amersham Bioscience, Pittsburgh, Pa.; catalog no. 17-5268-02). The purified 6×His-tagged human CRALBP was dialyzed against 10 mM bis-tris-Propane (BTP) and analyzed by SDS-PAGE. The molecular weight of the recombinant human CRALBP was approximately 39 kDal.
Alkkynyl phenyl-linked amine derivative compounds and control compounds were reconstituted in ethanol to 0.1 M. Ten-fold serial dilutions (10^−2, 10^−3, 10^−4, 10^−5, 10^−6 M) in ethanol of each compound were prepared for analysis in the isomerase assay.
The isomerase assay was performed in 10 mM bis-tris-propane (BTP) buffer, pH 7.5, 0.5% BSA (diluted in BTP buffer), 1 mM sodium pyrophosphate, 20 μM all-trans retinol (in ethanol), and 6 μM apo-CRALBP. The test compounds (2 μl) (final […] dilution of serial dilution stocks) were added to the above reaction mixture to which RPE microsomes were added. The same volume of ethanol was added to the control reaction (absence of test compound). Bovine RPE microsomes (9 μl) (see above) were then added, and the mixtures transferred to 37° C. to initiate the reaction (total volume=150 μl). The reactions were stopped after 30 minutes by adding methanol (300 μl). Heptane was added (300 μl) and mixed into the reaction mixture by pipetting. Retinoid was extracted by agitating the reaction mixtures, followed by centrifugation in a microcentrifuge. […]

| Compound | IC50 [µM] |
| --- | --- |
| NCCOc1cccc(C#CC2(O)CCCCCC2)c1 [Example 78, 1-((3-(2-aminoethoxy)phenyl)ethynyl)-cycloheptanol] | ≤ 1 |
| CCCC(O)C#Cc1cccc(CCCN)c1 (stereo not drawn) [Example 8, 1-(3-(3-Aminopropyl)phenyl)hex-1-yn-3-ol] | ≤ 1 |
| NCCCc1cccc(C#CC2(O)CCCCC2)c1 [Example 11, 1-((3-(3-Aminopropyl)phenyl)ethynyl)cyclohexanol] | ≤ 1 |
| NCCC(O)c1cccc(C#CCCc2ccccc2)c1 (stereo not drawn) [Example 69, 3-Amino-1-(3-(4-phenylbut-1-ynyl)phenyl)propan-1-ol] | ≤ 1 |
| NCCCc1cccc(C#C[C@@H](O)c2ccccc2)c1 [Example 26, (S)-3-(3-(3-Aminopropyl)phenyl)-1-phenylprop-2-yn-1-ol] | ≤ 10 |
| NCCOc1cccc(C#CC2(O)CCSCC2)c1 [Example 55, 4-((3-(2-Aminoethoxy)Phenyl)Ethynyl)Tetrahydro-2H-Thiopyran-4-ol] | ≤ 1 |
| CC(C)(C)C(C)(O)C#Cc1cccc(CCCN)c1 (stereo not drawn) [Example 25, 1-(3-(3-Aminopropyl)phenyl)-3,4,4-trimethylpent-1-yn-3-ol] | ≤ 1 |
| CCCC(O)(C#Cc1cccc(OCCN)c1)CCC [Example 18, 4-((3-(2-Aminoethoxy)phenyl)ethynyl)heptan-4-ol] | ≤ 1 |
| NCCOc1cccc(C#CC2CCCCC2)c1 [Example 80, 2-(3-(Cyclohexylethynyl)phenoxy)ethanamine] | ≤ 1 |
| NCCCc1cccc(C#CC2CCCC2)c1 [Example 38, 3-(3-(Cyclopentylethynyl)phenyl)propan-1-amine] | ≤ 1 |
| NCCCc1cccc(C#Cc2ccncc2)c1 [Example 63, 3-(3-(Pyridin-4-ylethynyl)phenyl)propan-1-amine] | ≤ 10 |
| CCC(O)(C#Cc1cccc(CCCN)c1)CC [Example 1, 1-(3-(3-Aminopropyl)phenyl)-3-ethylpent-1-yn-3-ol] | ≤ 1 |
| NCCCc1cccc(C#CC2(O)CCCC2)c1 [Example 24, 1-((3-(3-Aminopropyl)phenyl)ethynyl)cyclopentanol] | ≤ 1 |
| CCC(O)(C#Cc1cccc(OCCN)c1)CC [Example 27, 1-(3-(2-Aminoethoxy)phenyl)-3-ethylpent-1-yn-3-ol] | ≤ 1 |
| CCCC(O)(C#Cc1cccc([C@H](O)CCN)c1)CCC [Compound 100, (R)-4-((3-(3-Amino-1-Hydroxypropyl)Phenyl)Ethynyl)Heptan-4-ol] | ≤ 1 |
| NCCCc1cccc(C#Cc2ccccc2)c1 [Example 37, 3-(3-(Phenylethynyl)phenyl)propan-1-amine] | ≤ 1 |
| NCCOc1cccc(C#Cc2ccccc2)c1 [Example 81, 2-(3-(Phenylethynyl)phenoxy)-ethanamine] | ≤ 10 |
| CCCC(C#Cc1cccc(CCCN)c1)(CCC)OC [Example 4, 3-(3-(3-Methoxy-3-propylhex-1-ynyl)phenyl)propan-1-amine] | ≤ 1 |
| NCCC(O)c1cccc(C#CCCCCO)c1 (stereo not drawn) [Example 50, 6-(3-(3-Amino-1-hydroxypropyl)phenyl)hex-5-yn-1-ol] | ≤ 1 |
| CCCC(O)(C#Cc1cccc(CCCN)c1)CCC [Example 2, 4-((3-(3-Aminopropyl)phenyl)ethynyl)heptan-4-ol] | ≤ 1 |

| Compound | IC50 [µM] |
| --- | --- |
| NCCOc1cccc(C#CC2(O)CCCCC2)c1 [Example 57, 1-((3-(2-Aminoethoxy)phenyl)ethynyl)cyclohexanol] | ≤ 1 |
| CCCC(O)(C#Cc1cccc(C(O)CCN)c1)CCC (stereo not drawn) [Example 19, 4-((3-(3-Amino-1-hydroxypropyl)phenyl)ethynyl)heptan-4-ol] | ≤ 1 |
| CC(C)C(O)(C#Cc1cccc(OCCN)c1)C(C)C [Example 28, 1-(3-(2-Aminoethoxy)phenyl)-3-isopropyl-4-methylpent-1-yn-3-ol] | ≤ 1 |
| NCCOc1cccc(C#CCCCCO)c1 [Example 74, 6-(3-(2-Aminoethoxy)phenyl)hex-5-yn-1-ol] | ≤ 1 |
| NCCC(O)c1cccc(C#CC2CCCC2)c1 (stereo not drawn) [Example 47, 3-Amino-1-(3-(cyclopentylethynyl)phenyl)propan-1-ol] | ≤ 1 |
| NCCC(O)c1cccc(C#CC2(O)CCCCC2)c1 (stereo not drawn) [Example 99, 1-((3-(3-Amino-1-hydroxypropyl)phenyl)ethynyl)cyclohexanol] | ≤ 1 |
| NCCC(O)c1cccc(C#CC2(O)CCCCCC2)c1 (stereo not drawn) [Example 59, 1-((3-(3-Amino-1-hydroxypropyl)phenyl)ethynyl)cycloheptanol] | ≤ 1 |
| NCCCc1cccc(C#Cc2ccccn2)c1 [Example 61, 3-(3-(Pyridin-2-ylethynyl)phenyl)propan-1-amine] | ≤ 1 |
| CC(C)C(O)(C#Cc1cccc(CCCN)c1)C(C)C [Example 32, 1-(3-(3-Aminopropyl)phenyl)-3-isopropyl-4-methylpent-1-yn-3-ol] | ≤ 1 |
| NCCC(O)c1cccc(C#CC2CCCCC2)c1 (stereo not drawn) [Example 52, 3-Amino-1-(3-(Cyclohexylethynyl)Phenyl)Propan-1-ol] | ≤ 1 |
| CC(C)(O)C#Cc1cccc(CCCN)c1 [Example 7, 4-(3-(3-Aminopropyl)phenyl)-2-methylbut-3-yn-2-ol] | ≤ 1 |
| CCCC(O)(C#Cc1cccc([C@@H](O)CCN)c1)CCC [Compound 101, (S)-4-((3-(3-Amino-1-Hydroxypropyl)Phenyl)Ethynyl)Heptan-4-ol] | ≤ 1 |
| NCCOc1cccc(C#CC2(O)CCCC2)c1 [Example 31, 1-((3-(2-Aminoethoxy)phenyl)ethynyl)cyclopentanol] | ≤ 1 |
| NCCOc1cccc(C#Cc2cccnc2)c1 [Example 62, 2-(3-(Pyridin-3-ylethynyl)phenoxy)ethanamine] | ≤ 10 |
| NCCOc1cccc(C#CC2CCCC2)c1 [Example 79, 2-(3-(Cyclopentylethynyl)phenoxy)-ethanamine] | ≤ 1 |
| CC(=O)NCCCc1cccc(C#CC2(O)CCCCC2)c1 [Example 60, N-(3-(3-((1-Hydroxycyclohexyl)Ethynyl)Phenyl)Propyl)Acetamide] | ≤ 10 |
| COc1ccccc1C#Cc1cccc(C(O)CCN)c1 (stereo not drawn) [Example 54, 3-Amino-1-(3-((2-Methoxyphenyl)Ethynyl)Phenyl)Propan-1-ol] | ≤ 1 |
| COc1ccccc1C#Cc1cccc(CCCN)c1 [Example 36, 3-(3-((2-Methoxyphenyl)Ethynyl)Phenyl)Propan-1-Amine] | ≤ 1 |
| NCCC(O)c1cccc(C#CCCO)c1 (stereo not drawn) [Example 51, 4-(3-(3-Amino-1-hydroxypropyl)phenyl)but-3-yn-1-ol] | ≤ 1 |
